Values after ≈ are worked out from the molar mass of the structure shown.
Experiments:
[1] = Toxicity in Wistar-Han rat assessed as histopathological change at 750 mg/kg, po administered once daily for 7 days; format: organism-based; conditions: in vivo, 168 h, time 7 day
[2] = target: Nav1.5 (Homo sapiens, UniProt Q14524); assay: Inhibition of human Nav1.5 expressed in HEK293 cells at 30 uM by QPatch voltage clamp assay relative to control; format: cell-based; conditions: HEK293 cells expressing human Nav1.5
[3] = target: Leucine-rich repeat serine/threonine-protein kinase 2 (Homo sapiens) (UniProt Q5S007); assay: Inhibition of LRRK2 in human PBMC using LRRKtide peptide as substrate assessed as Ser935 dephosphorylation preincubated with compound for 15 mins followed by substrate addition and measured after 90 mins in presence of ATP by TR-FRET assay; format: cell-based; conditions: time 105.0 min
[4] = tested on: rat Mdr1a P-gp; assay: Apparent permeability across apical to basolateral side in LLC-PK1 cells transfected with rat Mdr1a P-gp incubated for 3 hrs by LC-MS/MS analysis; conditions: pig
[5] = target: Voltage-gated inwardly rectifying potassium channel KCNH2 (Homo sapiens, UniProt Q12809); assay: Inhibition of hERG expressed in CHO cells by QPatch voltage clamp assay
[6] = Oral bioavailability in Wistar-Han rat at 5 mg/kg measured after 24 hrs by LC-MS/MS analysis; format: ADME, organism-based; conditions: in vivo
[7] = Intrinsic clearance in rhesus monkey at 3 mg/kg, iv measured after 24 hrs by LC-MS/MS analysis; format: ADME, organism-based, Macaca mulatta; conditions: in vivo
[8] = Total clearance in Beagle dog at 0.5 mg/kg, iv measured after 24 hrs by LC-MS/MS analysis; format: ADME, organism-based, Canis lupus familiaris; conditions: in vivo
[9] = MRT in Beagle dog at 0.5 mg/kg, iv measured after 24 hrs by LC-MS/MS analysis; format: ADME, organism-based, Canis lupus familiaris; conditions: in vivo
[10] = Protein binding in rhesus monkey plasma incubated for 4 hrs by equilibrium dialysis method; format: ADME, cell-free, Macaca mulatta; conditions: read-out: PPB (converted)
[11] = Kinetic solubility of compound in PBS at pH 2 measured after 24 hrs by UPLC/DAD analysis; format: physicochemical; conditions: read-out: Kinetic_solubility
[12] = Kinetic solubility of compound in PBS at pH 7 measured after 24 hrs by UPLC/DAD analysis; format: physicochemical; conditions: read-out: Kinetic_solubility
[13] = Mutagenicity in Salmonella typhimurium TA1535 at 30 to 5000 ug/plate incubated for 48 hrs in absence of Wistar-Han rat S9 fraction by Ames test; format: toxicity; conditions: salmonella enterica subsp. enterica serovar typhimurium, s9, 48 h
[14] = Mutagenicity in Salmonella typhimurium TA100 at 30 to 5000 ug/plate incubated for 48 hrs in absence of Wistar-Han rat S9 fraction by Ames test; format: toxicity; conditions: salmonella enterica subsp. enterica serovar typhimurium, s9, 48 h
[15] = target: KCNQ1/KCNE1 (IKs, Kv7.1/MinK) (Homo sapiens, UniProt P15382+P51787); assay: Inhibition of human KCNQ1/KCNE1 expressed in HEK293 cells at 30 uM by QPatch voltage clamp assay relative to control; format: cell-based; conditions: HEK293 cells expressing human KCNQ1/KCNE1
[16] = Unbound drug concentration in guinea pig plasma at 5 mg/kg, iv administered continuously for 20 mins; format: ADME, organism-based, Cavia porcellus; conditions: in vivo
[17] = Unbound drug concentration in guinea pig plasma at 20 mg/kg, iv administered continuously for 20 mins; format: ADME, organism-based, Cavia porcellus; conditions: in vivo
[18] = Cardiotoxicity in guinea pig assessed as effect on PR interval at 5 to 20 mg/kg, iv administered continuously for 20 min by ECG analysis; format: toxicity, organism-based, Cavia porcellus; conditions: in vivo, dose 5-20 mg/kg
[19] = Cardiotoxicity in guinea pig assessed as effect on QRS interval at 5 to 20 mg/kg, iv administered continuously for 20 min by ECG analysis; format: toxicity, organism-based, Cavia porcellus; conditions: in vivo, dose 5-20 mg/kg
[20] = Genotoxicity in CHO-WBL cells incubated for 3 to 24 hrs in presence or absence of rat liver S9 fraction by micronucleus assay; format: toxicity, Cricetulus griseus; conditions: chinese hamster, time 3-24 hrs
[21] = tested on: Rattus norvegicus; assay: In vivo inhibition of LRRK2 in po dosed Wistar-Han rat assessed as reduction in Ser935 phosphorylation in stratium measured after 2 hrs; format: functional, organism-based; conditions: dose 1-100 mg/kg
[22] = tested on: PBMC; assay: Inhibition of LRRK2 in rat PBMC assessed as Ser935 dephosphorylation; format: cell-based
[23] = Cmax in Wistar-Han rat at 48 mg administered twice a day by LC-MS/MS analysis; format: ADME; set-up: dose 48 mg; conditions: in vivo
[24] = Toxicity in Wistar-Han rat assessed as effect on systolic blood pressure at 60 mg/kg, po administered as single dose and measured upto 24 hrs by telemetric analysis; format: organism-based; conditions: in vivo
[25] = Toxicity in Wistar-Han rat assessed as effect on arterial pulse pressure at 60 mg/kg, po administered as single dose and measured upto 24 hrs by telemetric analysis; format: organism-based; conditions: in vivo
[26] = Toxicity in Wistar-Han rat assessed as effect on heart rate at 225 mg/kg, po administered as single dose and measured after 5 to 8 hrs by telemetric analysis; format: organism-based; conditions: in vivo, time 5-8 hrs
[27] = Toxicity in Wistar-Han rat assessed as effect on arterial pulse pressure at 225 mg/kg, po administered as single dose and measured upto 24 hrs by telemetric analysis; format: organism-based; conditions: in vivo
[28] = Toxicity in Wistar-Han rat assessed as effect on body temperature at 225 mg/kg, po administered as single dose and measured upto 24 hrs by telemetric analysis; format: organism-based; conditions: in vivo
[29] = Toxicity in po dosed Wistar-Han rat assessed as NOAEL measured upto 24 hrs; format: organism-based; conditions: in vivo, read-out: Activity
[30] = AUC in Wistar-Han rat at 40 mg/kg, po administered once daily for 7 days; format: ADME, organism-based; set-up: dose 40 mg/kg, time 7 day, route po; conditions: in vivo
[31] = Toxicity in Wistar-Han rat assessed as squamous hyperplasia of nonglandular stomach at 750 mg/kg, po administered once daily for 7 days; format: organism-based; conditions: in vivo, 168 h, time 7 day
[32] = Toxicity in Wistar-Han rat assessed as erosion of nonglandular stomach at 750 mg/kg, po administered once daily for 7 days; format: organism-based; conditions: in vivo, 168 h, time 7 day
[33] = Toxicity in Wistar-Han rat assessed as NOAEL measured after 7 days; conditions: in vivo, time 7 day
[34] = AUCtau in Wistar-Han rat at 48 mg administered twice a day by LC-MS/MS analysis; format: ADME; set-up: dose 48 mg; conditions: in vivo
[35] = Toxicity in Wistar-Han rat assessed as micronucleus induction in bone marrow at 40 to 750 mg/kg, po administered once daily for 7 days by micronucleus test; format: organism-based; conditions: in vivo, 168 h, dose 40-750 mg/kg, time 7 day
[36] = Toxicity in rhesus monkey assessed as tolerance at 100 to 800 mg/kg, po administered once daily for 7 days; format: organism-based, Macaca mulatta; conditions: in vivo, 168 h, dose 100-800 mg/kg, time 7 day
[37] = AUC in rhesus monkey at 100 mg/kg, po administered once daily for 7 days; format: ADME, organism-based, Macaca mulatta; set-up: dose 100 mg/kg, time 7 day, route po; conditions: in vivo
[38] = AUC in rhesus monkey at 800 mg/kg, po administered once daily for 7 days; format: ADME, organism-based, Macaca mulatta; set-up: time 7 day, dose 800 mg/kg, route po; conditions: in vivo
[39] = Toxicity in rhesus monkey assessed as clinical observation at 100 to 800 mg/kg, po administered once daily for 7 days; format: organism-based, Macaca mulatta; conditions: in vivo, 168 h, dose 100-800 mg/kg, time 7 day
[40] = Toxicity in rhesus monkey assessed as lung type II pneumocyte hypertrophy at 200 to 800 mg/kg, po administered once daily for 7 days; format: organism-based, Macaca mulatta; conditions: in vivo, 168 h, dose 200-800 mg/kg, time 7 day

Chain of Leucine-rich repeat serine/threonine-protein kinase 2 (Homo sapiens) (Q5S007 whole entry): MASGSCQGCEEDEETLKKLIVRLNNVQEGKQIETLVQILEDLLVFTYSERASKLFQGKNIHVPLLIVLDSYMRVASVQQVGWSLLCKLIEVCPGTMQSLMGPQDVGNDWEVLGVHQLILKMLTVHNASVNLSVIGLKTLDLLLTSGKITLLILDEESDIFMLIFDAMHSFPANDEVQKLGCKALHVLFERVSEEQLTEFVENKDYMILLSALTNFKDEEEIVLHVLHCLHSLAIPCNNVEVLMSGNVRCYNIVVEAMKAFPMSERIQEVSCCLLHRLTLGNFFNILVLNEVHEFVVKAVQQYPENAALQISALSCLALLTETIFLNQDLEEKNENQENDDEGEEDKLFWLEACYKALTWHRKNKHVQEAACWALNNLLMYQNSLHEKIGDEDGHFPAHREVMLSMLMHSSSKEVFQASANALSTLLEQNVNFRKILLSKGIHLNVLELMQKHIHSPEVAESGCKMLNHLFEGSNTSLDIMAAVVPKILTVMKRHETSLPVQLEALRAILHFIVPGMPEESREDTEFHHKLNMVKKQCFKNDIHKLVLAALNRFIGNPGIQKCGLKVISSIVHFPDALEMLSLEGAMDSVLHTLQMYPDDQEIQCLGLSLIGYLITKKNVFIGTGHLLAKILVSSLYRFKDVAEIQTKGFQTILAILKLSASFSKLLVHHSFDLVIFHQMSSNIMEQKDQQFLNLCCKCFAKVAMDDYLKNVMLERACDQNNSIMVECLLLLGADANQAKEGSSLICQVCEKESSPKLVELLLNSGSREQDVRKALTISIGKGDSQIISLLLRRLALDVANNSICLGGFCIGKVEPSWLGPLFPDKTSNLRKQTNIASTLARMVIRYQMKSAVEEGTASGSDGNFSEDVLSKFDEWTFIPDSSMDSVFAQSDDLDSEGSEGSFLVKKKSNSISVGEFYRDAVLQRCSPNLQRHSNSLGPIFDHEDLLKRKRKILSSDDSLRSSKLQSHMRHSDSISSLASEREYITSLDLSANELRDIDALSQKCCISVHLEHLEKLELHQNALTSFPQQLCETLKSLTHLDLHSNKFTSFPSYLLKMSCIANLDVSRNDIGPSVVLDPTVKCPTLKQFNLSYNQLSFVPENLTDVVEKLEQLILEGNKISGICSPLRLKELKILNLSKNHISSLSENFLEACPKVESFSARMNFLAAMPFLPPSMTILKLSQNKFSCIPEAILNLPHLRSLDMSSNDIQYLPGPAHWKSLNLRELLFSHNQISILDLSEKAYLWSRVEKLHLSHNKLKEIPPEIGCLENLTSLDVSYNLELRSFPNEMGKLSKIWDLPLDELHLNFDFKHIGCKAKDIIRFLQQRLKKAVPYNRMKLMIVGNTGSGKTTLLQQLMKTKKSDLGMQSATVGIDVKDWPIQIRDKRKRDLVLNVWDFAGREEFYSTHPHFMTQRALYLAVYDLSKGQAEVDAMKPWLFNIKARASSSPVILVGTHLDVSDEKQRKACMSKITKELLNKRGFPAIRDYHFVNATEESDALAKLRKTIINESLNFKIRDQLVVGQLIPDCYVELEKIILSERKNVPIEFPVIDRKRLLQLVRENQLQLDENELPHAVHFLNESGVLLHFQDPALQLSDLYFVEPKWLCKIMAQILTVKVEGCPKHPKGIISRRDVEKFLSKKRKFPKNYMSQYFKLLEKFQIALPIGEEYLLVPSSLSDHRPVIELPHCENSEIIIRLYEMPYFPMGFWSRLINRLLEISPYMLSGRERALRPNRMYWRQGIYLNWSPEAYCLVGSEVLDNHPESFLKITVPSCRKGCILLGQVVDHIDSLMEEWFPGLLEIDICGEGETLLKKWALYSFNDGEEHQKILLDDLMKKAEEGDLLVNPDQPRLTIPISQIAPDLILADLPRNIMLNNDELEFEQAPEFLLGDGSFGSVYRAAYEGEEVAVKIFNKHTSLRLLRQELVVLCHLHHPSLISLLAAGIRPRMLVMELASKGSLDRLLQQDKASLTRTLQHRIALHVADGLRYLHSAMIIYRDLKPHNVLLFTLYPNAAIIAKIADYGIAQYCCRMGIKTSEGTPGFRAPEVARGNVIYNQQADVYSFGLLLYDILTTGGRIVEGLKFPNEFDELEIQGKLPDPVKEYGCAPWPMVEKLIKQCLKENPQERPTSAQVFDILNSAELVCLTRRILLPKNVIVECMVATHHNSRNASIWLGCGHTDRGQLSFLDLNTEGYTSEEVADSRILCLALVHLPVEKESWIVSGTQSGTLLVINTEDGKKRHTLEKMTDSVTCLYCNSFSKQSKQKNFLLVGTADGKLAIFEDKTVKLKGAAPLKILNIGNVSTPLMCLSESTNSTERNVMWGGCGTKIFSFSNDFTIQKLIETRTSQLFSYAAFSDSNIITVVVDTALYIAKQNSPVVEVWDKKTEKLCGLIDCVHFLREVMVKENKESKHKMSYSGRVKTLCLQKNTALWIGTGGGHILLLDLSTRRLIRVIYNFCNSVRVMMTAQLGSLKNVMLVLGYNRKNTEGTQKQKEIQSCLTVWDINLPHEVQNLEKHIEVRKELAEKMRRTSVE
Chain of Nav1.5 (Q14524 whole entry): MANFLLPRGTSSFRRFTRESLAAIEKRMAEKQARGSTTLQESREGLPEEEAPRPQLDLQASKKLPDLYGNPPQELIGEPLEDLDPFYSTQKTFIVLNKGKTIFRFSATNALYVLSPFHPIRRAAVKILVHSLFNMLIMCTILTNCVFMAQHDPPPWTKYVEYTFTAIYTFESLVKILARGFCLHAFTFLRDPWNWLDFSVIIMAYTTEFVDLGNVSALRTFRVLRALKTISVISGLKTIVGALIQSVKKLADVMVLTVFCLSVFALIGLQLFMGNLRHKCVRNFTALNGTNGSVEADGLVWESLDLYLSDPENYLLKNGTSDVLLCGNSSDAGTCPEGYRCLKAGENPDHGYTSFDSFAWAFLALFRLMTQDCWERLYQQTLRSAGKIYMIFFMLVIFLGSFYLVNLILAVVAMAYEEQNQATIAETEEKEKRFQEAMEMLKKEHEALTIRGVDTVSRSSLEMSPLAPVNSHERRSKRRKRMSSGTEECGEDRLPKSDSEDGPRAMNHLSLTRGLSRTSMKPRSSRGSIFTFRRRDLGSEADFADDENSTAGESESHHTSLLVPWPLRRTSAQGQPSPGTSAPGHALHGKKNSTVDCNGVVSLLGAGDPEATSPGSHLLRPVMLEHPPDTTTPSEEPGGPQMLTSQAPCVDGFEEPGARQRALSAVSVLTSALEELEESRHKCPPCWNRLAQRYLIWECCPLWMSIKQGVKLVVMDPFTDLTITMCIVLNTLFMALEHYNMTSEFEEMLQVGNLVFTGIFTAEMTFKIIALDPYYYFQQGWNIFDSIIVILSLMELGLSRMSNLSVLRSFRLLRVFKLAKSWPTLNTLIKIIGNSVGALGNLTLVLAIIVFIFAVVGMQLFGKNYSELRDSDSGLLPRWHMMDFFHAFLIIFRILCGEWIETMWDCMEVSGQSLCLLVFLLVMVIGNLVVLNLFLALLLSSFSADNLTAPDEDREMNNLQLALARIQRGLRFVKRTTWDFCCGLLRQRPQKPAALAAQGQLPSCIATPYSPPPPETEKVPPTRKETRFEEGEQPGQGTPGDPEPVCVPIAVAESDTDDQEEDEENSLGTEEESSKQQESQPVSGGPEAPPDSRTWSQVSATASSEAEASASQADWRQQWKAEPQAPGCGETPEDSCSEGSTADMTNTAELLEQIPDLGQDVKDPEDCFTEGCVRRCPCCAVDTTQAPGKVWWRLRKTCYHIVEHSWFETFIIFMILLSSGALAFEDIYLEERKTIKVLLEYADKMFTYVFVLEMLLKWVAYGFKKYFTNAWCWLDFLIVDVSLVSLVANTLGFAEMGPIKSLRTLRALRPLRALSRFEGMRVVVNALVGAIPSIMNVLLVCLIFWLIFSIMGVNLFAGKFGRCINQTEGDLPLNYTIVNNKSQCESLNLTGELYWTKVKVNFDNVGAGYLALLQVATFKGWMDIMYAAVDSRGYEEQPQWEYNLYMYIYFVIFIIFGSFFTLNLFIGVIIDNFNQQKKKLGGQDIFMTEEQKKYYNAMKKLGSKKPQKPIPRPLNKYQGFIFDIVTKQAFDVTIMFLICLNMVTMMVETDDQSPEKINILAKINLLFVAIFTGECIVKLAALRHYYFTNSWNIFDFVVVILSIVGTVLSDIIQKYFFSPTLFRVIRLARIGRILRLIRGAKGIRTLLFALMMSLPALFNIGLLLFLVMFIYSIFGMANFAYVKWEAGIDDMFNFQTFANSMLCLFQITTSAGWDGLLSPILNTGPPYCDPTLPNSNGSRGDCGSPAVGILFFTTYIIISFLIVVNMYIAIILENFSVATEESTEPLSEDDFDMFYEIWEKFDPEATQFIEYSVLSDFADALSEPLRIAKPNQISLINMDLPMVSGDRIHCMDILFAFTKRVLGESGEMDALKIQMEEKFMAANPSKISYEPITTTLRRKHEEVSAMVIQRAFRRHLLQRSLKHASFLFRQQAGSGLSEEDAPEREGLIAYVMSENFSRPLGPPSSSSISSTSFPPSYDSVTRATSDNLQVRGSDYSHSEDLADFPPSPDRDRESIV

- fIC50 [3]: 2.8 nM
- Papp A→B at 3 h [4]: 30 ×10⁻⁶ cm/s
- bioavailability [6]: 56%
- CL [7]: 736 mL/min/kg
- clearance [8]: 11 mL/min/kg
- MRT [9]: 29 h
- fraction unbound at 4 h [10]: 0.12
- solubility kinetic at 24 h [11]: 182 µM (≈ 91.2 µg/mL)
- solubility kinetic at 24 h [12]: < 3 µM
- inhibition at 30 µM [15]: 18%
- Cp(f) [16]: 1290 nM
- Cp(f) [17]: 11900 nM
- Cmax [23]: 750 nM
- AUC at 168 h [30]: 8.1 µM·h
- AUC [34]: 3 µM·h
- AUC at 168 h [37]: 14 µM·h
- AUC at 168 h [38]: 63 µM·h
SMILES: C[C@@]1(N2CCN(c3cc4cc(NC(=O)[C@H]5CC56CCOCC6)ncc4cc3Cl)CC2)COC[C@@H]1O
- Activity [1]: Non-Toxic
- inhibition at 30 µM [2]: 34%
- IC50 [5]: > 60 µM
- Activity [13]: Non-Toxic
- Activity [14]: Non-Toxic
- Activity [18]: Non-Toxic
- Activity [19]: Non-Toxic
- Activity [20]: Non-Toxic
- inhibition [21]: Dose-Dependent Effect
- fIC50 [22]: 25 nM
- Activity [24]: Non-Toxic
- Activity [25]: Non-Toxic
- Activity [26]: Toxic
- Activity [27]: Non-Toxic
- Activity [28]: Non-Toxic
- NOAEL at 24 h [29]: 60 mg/kg
- Activity [31]: Toxic
- Activity [32]: Toxic
- NOAEL at 168 h [33]: 225 mg/kg/day
- Activity [35]: Non-Toxic
- Activity [36]: Non-Toxic
- Activity [39]: Non-Toxic
- Activity [40]: Toxic
